Results published in the supplement of paper PMC10307832.

What was measured:
Assay in all cases: relative viability (nuclei count vs DMSO), 5 days (fraction); higher = more cells survive
[1] = compound: C1=CC2=C(C=C(C(=C2N=C1)O)N=NC3=CC4=C(C=C3)C=C(C=C4)S(=O)(=O)O)S(=O)(=O)O + C[C@@H](Oc1cc(-c2cnn(C3CCNCC3)c2)cnc1N)c1c(Cl)ccc(F)c1Cl [Crizotinib] (partner 1 µM)
Summary of the method: (§1)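 Lung cancer cell lines in 1536-well plates got either a single drug or a fixed anchor-drug dose together with five library-drug doses (not always all listed) in √10 steps, by pin tool, on the day after seeding. Nuclei were counted after 5 days, and relative viability is the treated-to-vehicle ratio of nuclei counts. Values are medians of duplicate plates.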

AT-7519 + Dasatinib = compound: O=C(NC1CCNCC1)c1n[nH]cc1NC(=O)c1c(Cl)cccc1Cl [AT-7519] + Cc1nc(Nc2ncc(C(=O)Nc3c(C)cccc3Cl)s2)cc(N2CCN(CCO)CC2)n1 [Dasatinib] (partner 0.075 µM)
Summary of the method: as §1

AT-7519 + Luminespib = compound: O=C(NC1CCNCC1)c1n[nH]cc1NC(=O)c1c(Cl)cccc1Cl [AT-7519] + CCNC(=O)c1noc(-c2cc(C(C)C)c(O)cc2O)c1-c1ccc(CN2CCOCC2)cc1 [Luminespib] (partner 0.01 µM)
Summary of the method: as §1

AT-7519 + Navitoclax = compound: O=C(NC1CCNCC1)c1n[nH]cc1NC(=O)c1c(Cl)cccc1Cl [AT-7519] + CC1(C)CCC(c2ccc(Cl)cc2)=C(CN2CCN(c3ccc(C(=O)NS(=O)(=O)c4ccc(N[C@H](CCN5CCOCC5)CSc5ccccc5)c(S(=O)(=O)C(F)(F)F)c4)cc3)CC2)C1 [Navitoclax] (partner 0.5 µM)
Summary of the method: as §1

Row | Cell Line | relative viability ([1]; first compound 0.08 µM) | relative viability ([1]; first compound 0.253 µM) | relative viability ([1]; first compound 0.8 µM) | relative viability ([1]; first compound 2.53 µM) | relative viability ([1]; first compound 8 µM) | relative viability (AT-7519 + Dasatinib; first compound 0.01 µM) | relative viability (AT-7519 + Dasatinib; first compound 0.03162 µM) | relative viability (AT-7519 + Dasatinib; first compound 0.3162 µM) | relative viability (AT-7519 + Dasatinib; first compound 1 µM) | relative viability (AT-7519 + Luminespib; first compound 0.01 µM) | relative viability (AT-7519 + Luminespib; first compound 0.03162 µM) | relative viability (AT-7519 + Luminespib; first compound 0.3162 µM) | relative viability (AT-7519 + Luminespib; first compound 1 µM) | relative viability (AT-7519 + Navitoclax; first compound 0.01 µM) | relative viability (AT-7519 + Navitoclax; first compound 0.03162 µM) | relative viability (AT-7519 + Navitoclax; first compound 0.3162 µM) | relative viability (AT-7519 + Navitoclax; first compound 1 µM)
1 | NCI-H460 | 1.16 | 0.98 | 0.85 | 1.09 | 0.836 | 0.545 | 0.558 | 0.438 | 0.243 | 0.0297 | 0.0263 | 0.0291 | 0.0206 | 0.965 | 1 | 0.932 | 0.0202
2 | NCI-H520 | 0.973 | 0.808 | 0.802 | 0.692 | 0.869 | 0.244 | 0.241 | 0.174 | 0.166 | 0.233 | 0.239 | 0.263 | 0.209 | 1.14 | 0.991 | 0.986 | 0.605
3 | NCI-H596 | 1.13 | 1.02 | 0.921 | 0.899 | 0.898 | 0.586 | 0.501 | 0.629 | 0.612 | 0.988 | 1 | 0.846 | 0.827 | 1 | 1.06 | 0.951 | 0.637
4 | NCI-H647 | 1.36 | 0.865 | 1.05 | 1.08 | 0.962 | 0.184 | 0.23 | 0.195 | 0.131 | 0.209 | 0.244 | 0.148 | 0.0855 | 1.11 | 1.19 | 1.12 | 0.762
5 | NCI-H727 | 1.17 | 0.76 | 0.798 | 0.936 | 0.772 | 0.392 | 0.401 | 0.257 | 0.135 | 0.343 | 0.339 | 0.279 | 0.24 | 0.374 | 0.449 | 0.245 | 0.121
6 | NCI-H838 | 0.992 | 0.734 | 0.848 | 0.943 | 0.811 | 0.298 | 0.285 | 0.259 | 0.249 | 0.239 | 0.292 | 0.276 | 0.13 | 1.22 | 1.06 | 1.09 | 0.147
7 | NCI-H1355 | 1.16 | 1.04 | 0.986 | 1.17 | 1.14 | 0.747 | 0.633 | 0.602 | 0.784 | 0.87 | 0.621 | 0.564 | 0.578 | 0.984 | 0.873 | 1.09 | 0.865
8 | NCI-H1437 | 1.07 | 0.894 | 0.897 | 0.909 | 0.919 | 0.444 | 0.424 | 0.377 | 0.486 | 1.17 | 1.2 | 1.09 | 0.745 | 1.03 | 1.08 | 1.1 | 0.455
9 | NCI-H1650 | 1.05 | 0.894 | 0.962 | 1.15 | 1.01 | 0.32 | 0.293 | 0.22 | 0.164 | 0.186 | 0.202 | 0.205 | 0.21 | 1.32 | 1.21 | 1.2 | 0.291
10 | NCI-H1651 | 0.968 | 0.834 | 0.837 | 0.874 | 0.729 | 0.396 | 0.304 | 0.406 | 0.292 | 0.882 | 0.675 | 0.614 | 0.607 | 0.983 | 1.08 | 0.997 | 0.882
11 | NCI-H1666 | 1.22 | 0.949 | 0.95 | 1.06 | 0.946 | 0.744 | 0.75 | 0.75 | 0.593 | 1.06 | 0.943 | 0.988 | 0.585 | 0.893 | 0.758 | 0.724 | 0.316
12 | NCI-H1734 | 0.733 | 0.66 | 0.724 | 0.64 | 0.662 | 0.445 | 0.421 | 0.391 | 0.31 | 0.2 | 0.174 | 0.164 | 0.0866 | 0.893 | 0.758 | 0.686 | 0.452
13 | NCI-H1755 | 0.977 | 0.819 | 0.858 | 0.938 | 0.849 | 0.465 | 0.404 | 0.465 | 0.409 | 0.59 | 0.38 | 0.345 | 0.416 | 1.05 | 0.983 | 1.02 | 0.986
14 | NCI-H1792 | 1.15 | 0.947 | 0.933 | 1.02 | 0.961 |  |  | 0.845 | 0.654 |  | 0.453 | 0.359 | 0.613 | 0.406 | 0.552 | 0.642 | 0.752
15 | NCI-H1915 | 0.973 | 0.864 | 0.893 | 0.912 | 0.925 | 0.215 | 0.316 | 0.334 | 0.274 | 0.687 | 0.798 | 0.729 | 0.62 | 0.817 | 0.83 | 0.758 | 0.785
16 | NCI-H1944 | 1.24 | 1.1 | 1.09 | 1.12 | 0.846 | 0.205 | 0.198 | 0.215 | 0.124 | 0.846 | 0.775 | 0.677 | 0.554 | 0.988 | 1.06 | 1.14 | 0.982
17 | NCI-H1975 | 1.1 | 0.961 | 1.01 | 0.994 | 0.929 | 0.341 | 0.341 | 0.384 | 0.127 | 0.21 | 0.176 | 0.317 | 0.126 | 1.01 | 1.02 | 0.87 | 0.236
